Test results taken from patent US20260022142A1, “MACROCYCLIC IMMUNOMODULATORS” (Bristol-Myers Squibb Company, priority 2022, published 2026).
Bridge positions count the residues as written; N and C are the ends. Square brackets hold non-standard residues; d marks the D form. Peptide text beside a SMILES is read from it. * marks the point of attachment. ξ: configuration not given here. Phe(4-COOH) = N[C@@H](Cc1ccc(C(=O)O)cc1)C(=O)O; Bip = N[C@@H](Cc1ccc(-c2ccccc2)cc1)C(=O)O; Phe(3-Me) = Cc1cccc(C[C@H](N)C(=O)O)c1; hArg = N=C(N)NCCCC[C@H](N)C(=O)O; 3Thi = N[C@@H](Cc1ccsc1)C(=O)O; Cha = N[C@@H](CC1CCCCC1)C(=O)O; Cit = NC(=O)NCCC[C@H](N)C(=O)O; Thr(3ξ) = CC(O)[C@H](N)C(=O)O; Carboxymethyl = O=C(O)C*; Orn = NCCC[C@H](N)C(=O)O; Aun = NCCCCCCCCCCC(=O)O; Dab = NCC[C@H](N)C(=O)O; Dap = NC[C@H](N)C(=O)O; AEEA = NCCOCCOCC(=O)O

Target: T1, PD-1/PD-L1 interaction (PE-labeled human PD-L1-Ig binding to Jurkat cell line over-expressing human PD-1) (Homo sapiens, UniProt Q15116)
T1 construct: expressed in transfected cells; host or cells: Jurkat
T1 sequence (Q15116 25-288): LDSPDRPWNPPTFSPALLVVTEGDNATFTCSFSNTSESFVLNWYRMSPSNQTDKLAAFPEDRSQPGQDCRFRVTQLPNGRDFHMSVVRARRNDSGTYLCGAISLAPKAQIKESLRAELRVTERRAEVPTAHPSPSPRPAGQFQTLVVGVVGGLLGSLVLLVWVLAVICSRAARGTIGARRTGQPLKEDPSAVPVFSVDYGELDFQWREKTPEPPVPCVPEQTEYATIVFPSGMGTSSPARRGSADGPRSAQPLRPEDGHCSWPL
Assay: Jurkat-PD-1 Cell Binding High-Content Screening Assay (CBA)
Format: cell-based
Conditions: Jurkat cell line over-expressing human PD-1; PE-labeled PD-L1-Ig 20 nM final; read-out: Jurkat hPD1-PDL1 IC50
Outline: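 Jurkat cells over-expressing human PD-1 (8×10^3 per well, DMEM/10% FCS) preincubated with compound 2 h at 37° C, then PE-labeled human PD-L1-Ig (20 nM final) added for 1 h. Cells fixed with paraformaldehyde, Hoechst-stained, and bound fluorescence quantified by high-content imaging.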

IC50	Compound
0.008 µM	CC(C)C[C@H]1NC(=O)[C@H](CCN)NC(=O)[C@H](C(C)C)NC(=O)[C@H](Cc2ccc(-c3ccccc3)cc2)NC(=O)[C@H](C(C)C)NC(=O)[C@H](Cc2c[nH]c3ccccc23)NC(=O)[C@H](CC(=O)O)NC(=O)[C@H](Cc2ccc(OCC(=O)O)cc2)NC(=O)[C@H](Cc2ccsc2)NC(=O)CSC[C@@H](C(=O)NCCOCCOCC(=O)N[C@@H](CCCN)C(=O)NCCCCCCCCCCC(=O)O)NC(=O)[C@H](C(C)O)NC(=O)[C@H](C(C)C)NC(=O)[C@H](CC2CCCCC2)NC(=O)[C@H](CCN)NC1=O (stereo partly drawn) [Compound 3210] ({CH2CO}-[3Thi]Y(Carboxymethyl)DWV[Bip]V[Dab][dL][Dab][Cha]V[Thr(3ξ)]C[AEEA][Orn][Aun]-OH; thioether N-14)
0.0183 µM	CC(C)C[C@H]1NC(=O)[C@H](CCCN)NC(=O)[C@H](C(C)C)NC(=O)[C@H](Cc2ccc(-c3ccccc3)cc2)NC(=O)[C@H](C(C)C)NC(=O)[C@H](Cc2c[nH]c3ccccc23)NC(=O)[C@H](CC(=O)O)NC(=O)[C@H](Cc2ccc(OCC(=O)O)cc2)NC(=O)[C@H](Cc2ccsc2)NC(=O)CSC[C@@H](C(=O)NCCOCCOCC(=O)N[C@@H](CCCN)C(=O)NCCCCCCCCCCC(=O)O)NC(=O)[C@H](C(C)O)NC(=O)[C@H](C(C)C)NC(=O)[C@H](CC2CCCCC2)NC(=O)[C@H](CCN)NC1=O (stereo partly drawn) [Compound 3211] ({CH2CO}-[3Thi]Y(Carboxymethyl)DWV[Bip]V[Orn][dL][Dab][Cha]V[Thr(3ξ)]C[AEEA][Orn][Aun]-OH; thioether N-14)
0.0137 µM	CC(C)C[C@H]1NC(=O)[C@H](CCN)NC(=O)[C@H](C(C)C)NC(=O)[C@H](Cc2ccc(-c3ccccc3)cc2)NC(=O)[C@H](C(C)C)NC(=O)[C@H](Cc2c[nH]c3ccccc23)NC(=O)[C@H](CC(=O)O)NC(=O)[C@H](Cc2ccc(OCC(=O)O)cc2)NC(=O)[C@H](CCCCNC(=N)N)NC(=O)CSC[C@@H](C(=O)NCCOCCOCC(=O)N[C@@H](CCCN)C(=O)NCCCCCCCCCCC(=O)O)NC(=O)[C@H](C(C)O)NC(=O)[C@H](C(C)C)NC(=O)[C@H](CC2CCCCC2)NC(=O)[C@H](CCN)NC1=O (stereo partly drawn) [Compound 3212] ({CH2CO}-[hArg]Y(Carboxymethyl)DWV[Bip]V[Dab][dL][Dab][Cha]V[Thr(3ξ)]C[AEEA][Orn][Aun]-OH; thioether N-14)
0.0135 µM	CC(C)C[C@H]1NC(=O)[C@H](CCCN)NC(=O)[C@H](C(C)C)NC(=O)[C@H](Cc2ccc(-c3ccccc3)cc2)NC(=O)[C@H](C(C)C)NC(=O)[C@H](Cc2c[nH]c3ccccc23)NC(=O)[C@H](CC(=O)O)NC(=O)[C@H](Cc2ccc(OCC(=O)O)cc2)NC(=O)[C@H](CCCCNC(=N)N)NC(=O)CSC[C@@H](C(=O)N[C@@H](CCN)C(=O)NCCOCCOCC(=O)NCCCCCCCCCCC(=O)O)NC(=O)[C@H](CCCNC(N)=O)NC(=O)[C@H](C(C)C)NC(=O)[C@H](CC2CCCCC2)NC(=O)[C@H](CC(N)=O)NC1=O [Compound 3213] ({CH2CO}-[hArg]Y(Carboxymethyl)DWV[Bip]V[Orn][dL]N[Cha]V[Cit]C[Dab][AEEA][Aun]-OH; thioether N-14)
0.0228 µM	CC(C)C[C@H]1NC(=O)[C@H](CCCN)NC(=O)[C@H](C(C)C)NC(=O)[C@H](Cc2ccc(-c3ccccc3)cc2)NC(=O)[C@H](C(C)C)NC(=O)[C@H](Cc2c[nH]c3ccccc23)NC(=O)[C@H](CC(=O)O)NC(=O)[C@H](Cc2ccc(OCC(=O)O)cc2)NC(=O)[C@H](CCCCNC(=N)N)NC(=O)CSC[C@@H](C(=O)N[C@@H](CCN)C(=O)NCCOCCOCC(=O)NCCCCCCCCCCC(=O)O)NC(=O)[C@H](CN)NC(=O)[C@H](C(C)C)NC(=O)[C@H](CC2CCCCC2)NC(=O)[C@H](CC(N)=O)NC1=O [Compound 3214] ({CH2CO}-[hArg]Y(Carboxymethyl)DWV[Bip]V[Orn][dL]N[Cha]V[Dap]C[Dab][AEEA][Aun]-OH; thioether N-14)
0.0253 µM	CC(C)C[C@H]1NC(=O)[C@H](CCCN)NC(=O)[C@H](C(C)C)NC(=O)[C@H](Cc2ccc(-c3ccccc3)cc2)NC(=O)[C@H](C(C)C)NC(=O)[C@H](Cc2c[nH]c3ccccc23)NC(=O)[C@H](CC(=O)O)NC(=O)[C@H](Cc2ccc(OCC(=O)O)cc2)NC(=O)[C@H](CCCCNC(=N)N)NC(=O)CSC[C@@H](C(=O)N[C@@H](CCN)C(=O)NCCOCCOCC(=O)NCCCCCCCCCCC(=O)O)NC(=O)[C@H](CCN)NC(=O)[C@H](C(C)C)NC(=O)[C@H](CC2CCCCC2)NC(=O)[C@H](CC(N)=O)NC1=O [Compound 3215] ({CH2CO}-[hArg]Y(Carboxymethyl)DWV[Bip]V[Orn][dL]N[Cha]V[Dab]C[Dab][AEEA][Aun]-OH; thioether N-14)
0.0352 µM	CC(C)C[C@H]1NC(=O)[C@H](CCCN)NC(=O)[C@H](C(C)C)NC(=O)[C@H](Cc2ccc(-c3ccccc3)cc2)NC(=O)[C@H](C(C)C)NC(=O)[C@H](Cc2c[nH]c3ccccc23)NC(=O)[C@H](CC(=O)O)NC(=O)[C@H](Cc2ccc(OCC(=O)O)cc2)NC(=O)[C@H](CCCCNC(=N)N)NC(=O)CSC[C@@H](C(=O)N[C@@H](CCN)C(=O)NCCOCCOCC(=O)NCCCCCCCCCCC(=O)O)NC(=O)[C@H](CCCN)NC(=O)[C@H](C(C)C)NC(=O)[C@H](CC2CCCCC2)NC(=O)[C@H](CC(N)=O)NC1=O [Compound 3216] ({CH2CO}-[hArg]Y(Carboxymethyl)DWV[Bip]V[Orn][dL]N[Cha]V[Orn]C[Dab][AEEA][Aun]-OH; thioether N-14)
0.0179 µM	CC(C)C[C@H]1NC(=O)[C@H](CCCN)NC(=O)[C@H](C(C)C)NC(=O)[C@H](Cc2ccc(-c3ccccc3)cc2)NC(=O)[C@H](C(C)C)NC(=O)[C@H](Cc2c[nH]c3ccccc23)NC(=O)[C@H](CC(=O)O)NC(=O)[C@H](Cc2ccc(OCC(=O)O)cc2)NC(=O)[C@H](CCCCNC(=N)N)NC(=O)CSC[C@@H](C(=O)N[C@@H](CCN)C(=O)NCCOCCOCC(=O)NCCCCCCCCCCC(=O)O)NC(=O)[C@H](CCCCN)NC(=O)[C@H](C(C)C)NC(=O)[C@H](CC2CCCCC2)NC(=O)[C@H](CC(N)=O)NC1=O [Compound 3217] ({CH2CO}-[hArg]Y(Carboxymethyl)DWV[Bip]V[Orn][dL]N[Cha]VKC[Dab][AEEA][Aun]-OH; thioether N-14)
0.0269 µM	CC(C)C[C@H]1NC(=O)[C@H](CCCN)NC(=O)[C@H](C(C)C)NC(=O)[C@H](Cc2ccc(-c3ccccc3)cc2)NC(=O)[C@H](C(C)C)NC(=O)[C@H](Cc2c[nH]c3ccccc23)NC(=O)[C@H](CC(=O)O)NC(=O)[C@H](Cc2ccc(OCC(=O)O)cc2)NC(=O)[C@H](CCCCNC(=N)N)NC(=O)CSC[C@@H](C(=O)N[C@@H](CCCNC(N)=O)C(=O)NCCOCCOCC(=O)NCCCCCCCCCCC(=O)O)NC(=O)[C@H](CCCN)NC(=O)[C@H](C(C)C)NC(=O)[C@H](CC2CCCCC2)NC(=O)[C@H](CC(N)=O)NC1=O [Compound 3218] ({CH2CO}-[hArg]Y(Carboxymethyl)DWV[Bip]V[Orn][dL]N[Cha]V[Orn]C[Cit][AEEA][Aun]-OH; thioether N-14)
0.0096 µM	Cc1cccc(C[C@@H]2NC(=O)[C@H](CC(=O)O)NC(=O)[C@H](Cc3ccc(OCC(=O)O)cc3)NC(=O)[C@H](CCCNC(=N)N)NC(=O)CSC[C@@H](C(=O)N[C@@H](CCCCN)C(=O)NCCCCCCCCCCC(=O)O)NC(=O)[C@H](CCCN)NC(=O)[C@H](C(C)C)NC(=O)[C@H](CC3CCCCC3)NC(=O)[C@H](CCN)NC(=O)[C@@H](CC(C)C)NC(=O)[C@H](CCCN)NC(=O)[C@H](C(C)C)NC(=O)[C@H](Cc3ccc(-c4ccccc4)cc3)NC(=O)[C@H](C(C)C)NC2=O)c1 [Compound 3219] ({CH2CO}-RY(Carboxymethyl)D[Phe(3-Me)]V[Bip]V[Orn][dL][Dab][Cha]V[Orn]CK[Aun]-OH; thioether N-14)
0.0115 µM	Cc1cccc(C[C@@H]2NC(=O)[C@H](CC(=O)O)NC(=O)[C@H](Cc3ccc(OCC(=O)O)cc3)NC(=O)[C@H](CCCNC(=N)N)NC(=O)CSC[C@@H](C(=O)NCCOCCOCC(=O)N[C@@H](CCN)C(=O)NCCCCCCCCCCC(=O)O)NC(=O)[C@H](CN)NC(=O)[C@H](C(C)C)NC(=O)[C@H](CC3CCCCC3)NC(=O)[C@H](CCN)NC(=O)[C@@H](CC(C)C)NC(=O)[C@H](CCCN)NC(=O)[C@H](C(C)C)NC(=O)[C@H](Cc3ccc(-c4ccccc4)cc3)NC(=O)[C@H](C(C)C)NC2=O)c1 [Compound 3220] ({CH2CO}-RY(Carboxymethyl)D[Phe(3-Me)]V[Bip]V[Orn][dL][Dab][Cha]V[Dap]C[AEEA][Dab][Aun]-OH; thioether N-14)
0.0098 µM	CC(C)C[C@H]1NC(=O)[C@H](CCCN)NC(=O)[C@H](C(C)C)NC(=O)[C@H](Cc2ccc(-c3ccccc3)cc2)NC(=O)[C@H](C(C)C)NC(=O)[C@H](Cc2c[nH]c3ccccc23)NC(=O)[C@H](CC(=O)O)NC(=O)[C@H](Cc2ccc(C(=O)O)cc2)NC(=O)[C@H](Cc2ccc(OCC(=O)O)cc2)NC(=O)CSC[C@@H](C(=O)NCC(=O)NCCOCCOCC(=O)N[C@@H](CCCN)C(=O)NCCCCCCCCCCC(=O)O)NC(=O)[C@H](CCCN)NC(=O)[C@H](C(C)C)NC(=O)[C@H](CC2CCCCC2)NC(=O)[C@H](CCN)NC1=O [Compound 3228] ({CH2CO}-Y(Carboxymethyl)[Phe(4-COOH)]DWV[Bip]V[Orn][dL][Dab][Cha]V[Orn]CG[AEEA][Orn][Aun]-OH; thioether N-14)
0.0069 µM	CC(C)C[C@H]1NC(=O)[C@H](CCCN)NC(=O)[C@H](C(C)C)NC(=O)[C@H](Cc2ccc(-c3ccccc3)cc2)NC(=O)[C@H](C(C)C)NC(=O)[C@H](Cc2c[nH]c3ccccc23)NC(=O)[C@H](CC(=O)O)NC(=O)[C@H](Cc2ccc(OCC(=O)O)cc2)NC(=O)[C@H](Cc2ccc(OCC(=O)O)cc2)NC(=O)CSC[C@@H](C(=O)NCC(=O)NCCOCCOCC(=O)N[C@@H](CCCN)C(=O)NCCCCCCCCCCC(=O)O)NC(=O)[C@H](CCCN)NC(=O)[C@H](C(C)C)NC(=O)[C@H](CC2CCCCC2)NC(=O)[C@H](CCN)NC1=O [Compound 3229] ({CH2CO}-Y(Carboxymethyl)Y(Carboxymethyl)DWV[Bip]V[Orn][dL][Dab][Cha]V[Orn]CG[AEEA][Orn][Aun]-OH; thioether N-14)
